One compound from ChEMBL document CHEMBL4396888, “Design and Synthesis of Potent, Selective Inhibitors of Protein Arginine Methyltransferase 4 against Acute Myeloid Leukemia” (J Med Chem, 2019) can be followed below.

Structures are written as SMILES. Activity calls are given as the source filed them.

Usually IC50 stands for the concentration needed to halve the response being measured. Low readings indicate greater potency, high ones weaker potency. As usually defined, the AUC(0-inf) is total exposure, with the tail of the curve extrapolated. What is called half-life is the time needed for the level to fall by half in the phase considered. Read a high half-life as slow loss. As a reminder, the Tmax is the time at which the peak concentration occurs.

For data set [1], the target named is Protein arginine N-methyltransferase 3 (Homo sapiens, UniProt O60678). The data set can be described thus: Inhibition of PRMT3 (unknown origin) preincubated for 15 mins followed by substrate addition and measured after 60 mins by AlphaLisa assay. On the technique in general: Bead proximity is the source of the signal in Alpha formats.
For data set [2], the target named is Histone-lysine N-methyltransferase 2A (Homo sapiens) (UniProt Q03164). The data set can be described thus: Inhibition of MLL1 (unknown origin) up to 50 uM preincubated for 10 mins followed by peptide substrate addition and measured after 4 hrs in presence of SAM by HTRF assay. (In TR-FRET formats the signal depends on donor and acceptor labels being close together.)

Data set [3] addresses Histone-lysine N-methyltransferase NSD2 (Homo sapiens) (UniProt O96028). Description: Inhibition of NSD2 (unknown origin) up to 50 uM preincubated for 15 mins followed by substrate addition and measured after 60 mins by AlphaLisa assay.
Data set [4] concerns the target Histone-lysine N-methyltransferase SMYD3 (Homo sapiens) (UniProt Q9H7B4). The data set can be described thus: Inhibition of SMYD3 (unknown origin) up to 50 uM preincubated for 15 mins followed by substrate addition and measured after 60 mins by AlphaLisa assay.
The target in data set [5] is Histone-lysine N-methyltransferase, H3 lysine-79 specific (Homo sapiens) (UniProt Q8TEK3). The data set can be described thus: Inhibition of DOT1L (unknown origin) up to 50 uM preincubated for 15 mins followed by substrate addition and measured after 60 mins by AlphaLisa assay.
Data set [6] deals with Histone-lysine N-methyltransferase EHMT2 (Homo sapiens) (UniProt Q96KQ7). The data set can be described thus: Inhibition of G9a (unknown origin) up to 50 uM preincubated for 15 mins followed by substrate addition and measured after 60 mins by AlphaLisa assay.
The next data set has as its system RS4-11. The data set can be described thus: Antiproliferative activity against human RS4:11 cells measured after 6 days by CCK8/SRB assay. The data set is classed as functional, cell-based. A general note: In SRB staining, fixed cells bind dye roughly in proportion to their protein.
In the next data set the test system is MOLT-4. Description: Antiproliferative activity against human MOLT4 cells measured after 6 days by CCK8/SRB assay. The data set is classed as functional, cell-based.
In a further data set the test system is HEL. Description: Antiproliferative activity against HEL cells measured after 6 days by CCK8/SRB assay. The data set is classed as functional, cell-based. To be noted: Homo sapiens.
Data set [7] can be described thus: Selectivity ratio of IC50 for antiproliferative activity against human MOLM13 cells to IC50 for inhibition of PRMT4 in human MOLM13 cells assessed as reduction in BAF155 dimethylation.
Data set [8] relates to MOLM-13. The data set can be described thus: Cell cycle arrest in human MOLM13 cells assessed as decrease in accumulation at S-phase measured after 72 hrs by propidium iodide staining-based flow cytometry. The data set is classed as functional.
Data set [9] relates to MOLM-13. The data set can be described thus: Cell cycle arrest in human MOLM13 cells assessed as increase in accumulation at G0/G1-phase measured after 72 hrs by propidium iodide staining-based flow cytometry. The data set is classed as functional.
Data set [10] in a line: AUC (0 to infinity) in ICR mouse at 3 mg/kg, iv by mass spectrometric analysis. The data set is classed as ADME, organism-based. Also noted: dose 3 mg/kg, route intravenous, time infinity. To be noted: in vivo.
The nature of data set [11]: Half life in ICR mouse at 10 mg/kg, po administered via gavage by mass spectrometric analysis. The data set is classed as ADME, organism-based. To be noted: in vivo.
Data set [12] can be described thus: Tmax in ICR mouse at 10 mg/kg, po administered via gavage by mass spectrometric analysis. The data set is classed as ADME, organism-based. To be noted: in vivo.
In data set [13] the test system is MOLM-13. The data set can be described thus: Antitumor activity against human MOLM13 cells xenografted in BALB/c nude mouse assessed as tumor growth inhibition at 100 mg/kg, po administered daily for 18 days measured 2 to 3 times a week by caliper method relative to control. The data set is classed as functional. To be noted: MOLM-13, po, 432 h, read-out: TGI.

Data set [14] relates to Mus musculus. The data set can be described thus: In vivo inhibition of PRMT4 in nude BALB/c mouse xenografted with human MOLM13 cells assessed as reduction in PABP1 dimethylation at 100 mg/kg, po administered daily for 18 days measured 6 hrs post-last dose by Western blot analysis. The data set is classed as functional, organism-based.
Data set [15] concerns Mus musculus. Description: In vivo inhibition of PRMT4 in nude BALB/c mouse xenografted with human MOLM13 cells assessed as reduction in asymmetric dimethyl arginine level at 100 mg/kg, po administered daily for 18 days measured 6 hrs post-last dose by Western blot analysis. The data set is classed as functional, organism-based.
The nature of data set [16]: Drug level in tumor of nude BALB/c mouse xenografted with human MOLM13 cells at 100 mg/kg, po administered daily for 18 days measured 6 hrs post-last dose by LC-MS/MS analysis. The data set is classed as ADME, organism-based, Neoplasm. To be noted: read-out: Drug uptake.

Sequence of Histone-lysine N-methyltransferase 2A (Homo sapiens) (Q03164 1-2718 limits assumed): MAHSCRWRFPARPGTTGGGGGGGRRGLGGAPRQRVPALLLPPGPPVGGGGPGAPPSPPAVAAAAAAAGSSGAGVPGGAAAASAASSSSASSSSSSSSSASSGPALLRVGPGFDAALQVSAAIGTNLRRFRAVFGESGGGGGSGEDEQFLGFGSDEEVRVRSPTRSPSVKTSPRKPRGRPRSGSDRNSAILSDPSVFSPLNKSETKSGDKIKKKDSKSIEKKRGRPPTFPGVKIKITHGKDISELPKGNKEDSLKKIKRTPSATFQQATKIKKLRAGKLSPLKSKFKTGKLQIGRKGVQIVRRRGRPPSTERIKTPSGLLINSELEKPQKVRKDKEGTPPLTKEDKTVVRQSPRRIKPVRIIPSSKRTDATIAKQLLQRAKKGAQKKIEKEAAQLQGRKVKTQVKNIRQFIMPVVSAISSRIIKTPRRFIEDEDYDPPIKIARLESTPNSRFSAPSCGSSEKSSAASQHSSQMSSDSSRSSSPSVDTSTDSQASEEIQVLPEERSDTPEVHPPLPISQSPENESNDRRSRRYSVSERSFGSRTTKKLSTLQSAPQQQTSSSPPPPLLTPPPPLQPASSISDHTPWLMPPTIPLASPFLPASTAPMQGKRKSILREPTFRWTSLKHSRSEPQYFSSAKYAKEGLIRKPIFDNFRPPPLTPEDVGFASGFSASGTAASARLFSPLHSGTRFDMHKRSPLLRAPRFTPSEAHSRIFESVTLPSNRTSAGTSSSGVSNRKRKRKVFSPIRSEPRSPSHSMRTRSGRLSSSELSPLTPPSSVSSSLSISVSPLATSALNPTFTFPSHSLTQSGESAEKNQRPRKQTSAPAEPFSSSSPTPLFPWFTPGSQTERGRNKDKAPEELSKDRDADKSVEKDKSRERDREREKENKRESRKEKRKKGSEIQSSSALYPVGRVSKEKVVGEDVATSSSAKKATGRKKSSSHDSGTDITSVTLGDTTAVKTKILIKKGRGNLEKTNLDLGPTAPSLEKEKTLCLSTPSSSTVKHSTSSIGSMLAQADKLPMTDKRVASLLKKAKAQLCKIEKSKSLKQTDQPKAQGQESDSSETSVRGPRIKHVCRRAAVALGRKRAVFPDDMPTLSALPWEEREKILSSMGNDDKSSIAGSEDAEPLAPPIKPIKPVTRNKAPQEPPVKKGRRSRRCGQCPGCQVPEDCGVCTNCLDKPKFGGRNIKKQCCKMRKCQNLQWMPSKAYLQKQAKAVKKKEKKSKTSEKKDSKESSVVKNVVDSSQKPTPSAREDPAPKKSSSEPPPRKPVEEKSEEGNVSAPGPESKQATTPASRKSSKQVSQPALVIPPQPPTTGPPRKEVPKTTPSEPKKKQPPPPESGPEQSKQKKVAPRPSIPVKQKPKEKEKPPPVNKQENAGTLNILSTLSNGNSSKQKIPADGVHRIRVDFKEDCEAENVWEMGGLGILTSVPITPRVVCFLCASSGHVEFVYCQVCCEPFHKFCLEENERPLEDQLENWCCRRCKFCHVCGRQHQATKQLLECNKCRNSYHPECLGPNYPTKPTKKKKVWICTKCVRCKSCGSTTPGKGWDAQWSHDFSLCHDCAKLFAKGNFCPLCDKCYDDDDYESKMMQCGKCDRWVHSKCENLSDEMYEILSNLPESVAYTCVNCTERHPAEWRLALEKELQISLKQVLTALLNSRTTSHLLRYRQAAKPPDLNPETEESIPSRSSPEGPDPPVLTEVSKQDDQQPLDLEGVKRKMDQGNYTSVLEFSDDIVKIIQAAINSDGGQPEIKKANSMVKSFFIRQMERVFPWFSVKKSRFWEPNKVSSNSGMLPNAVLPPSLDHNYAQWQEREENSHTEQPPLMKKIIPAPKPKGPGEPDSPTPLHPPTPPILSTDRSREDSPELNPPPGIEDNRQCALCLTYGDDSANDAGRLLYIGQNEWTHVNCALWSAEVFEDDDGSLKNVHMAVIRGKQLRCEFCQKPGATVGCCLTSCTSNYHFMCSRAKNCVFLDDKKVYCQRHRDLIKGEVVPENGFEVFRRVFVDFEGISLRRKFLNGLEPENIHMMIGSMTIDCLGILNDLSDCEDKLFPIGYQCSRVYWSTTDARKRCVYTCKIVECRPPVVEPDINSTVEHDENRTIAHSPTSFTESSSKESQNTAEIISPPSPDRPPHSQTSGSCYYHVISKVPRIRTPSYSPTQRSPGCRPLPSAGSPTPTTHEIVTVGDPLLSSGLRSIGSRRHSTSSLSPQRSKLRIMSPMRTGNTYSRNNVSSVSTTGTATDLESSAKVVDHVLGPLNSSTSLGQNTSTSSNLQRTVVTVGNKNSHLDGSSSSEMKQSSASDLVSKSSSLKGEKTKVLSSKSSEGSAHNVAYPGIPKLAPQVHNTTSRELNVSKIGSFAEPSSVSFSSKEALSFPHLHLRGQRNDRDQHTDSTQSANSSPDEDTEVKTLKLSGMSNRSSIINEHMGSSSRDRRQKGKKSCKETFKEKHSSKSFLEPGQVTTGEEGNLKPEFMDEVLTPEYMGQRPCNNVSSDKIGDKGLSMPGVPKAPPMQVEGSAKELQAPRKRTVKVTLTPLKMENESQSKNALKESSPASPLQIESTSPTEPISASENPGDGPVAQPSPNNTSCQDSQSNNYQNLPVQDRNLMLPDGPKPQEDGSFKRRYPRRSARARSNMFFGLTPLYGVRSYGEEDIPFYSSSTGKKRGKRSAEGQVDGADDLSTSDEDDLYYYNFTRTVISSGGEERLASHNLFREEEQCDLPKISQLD
Sequence of Histone-lysine N-methyltransferase 2A (Homo sapiens) (Q03164 2719-3969 limits assumed): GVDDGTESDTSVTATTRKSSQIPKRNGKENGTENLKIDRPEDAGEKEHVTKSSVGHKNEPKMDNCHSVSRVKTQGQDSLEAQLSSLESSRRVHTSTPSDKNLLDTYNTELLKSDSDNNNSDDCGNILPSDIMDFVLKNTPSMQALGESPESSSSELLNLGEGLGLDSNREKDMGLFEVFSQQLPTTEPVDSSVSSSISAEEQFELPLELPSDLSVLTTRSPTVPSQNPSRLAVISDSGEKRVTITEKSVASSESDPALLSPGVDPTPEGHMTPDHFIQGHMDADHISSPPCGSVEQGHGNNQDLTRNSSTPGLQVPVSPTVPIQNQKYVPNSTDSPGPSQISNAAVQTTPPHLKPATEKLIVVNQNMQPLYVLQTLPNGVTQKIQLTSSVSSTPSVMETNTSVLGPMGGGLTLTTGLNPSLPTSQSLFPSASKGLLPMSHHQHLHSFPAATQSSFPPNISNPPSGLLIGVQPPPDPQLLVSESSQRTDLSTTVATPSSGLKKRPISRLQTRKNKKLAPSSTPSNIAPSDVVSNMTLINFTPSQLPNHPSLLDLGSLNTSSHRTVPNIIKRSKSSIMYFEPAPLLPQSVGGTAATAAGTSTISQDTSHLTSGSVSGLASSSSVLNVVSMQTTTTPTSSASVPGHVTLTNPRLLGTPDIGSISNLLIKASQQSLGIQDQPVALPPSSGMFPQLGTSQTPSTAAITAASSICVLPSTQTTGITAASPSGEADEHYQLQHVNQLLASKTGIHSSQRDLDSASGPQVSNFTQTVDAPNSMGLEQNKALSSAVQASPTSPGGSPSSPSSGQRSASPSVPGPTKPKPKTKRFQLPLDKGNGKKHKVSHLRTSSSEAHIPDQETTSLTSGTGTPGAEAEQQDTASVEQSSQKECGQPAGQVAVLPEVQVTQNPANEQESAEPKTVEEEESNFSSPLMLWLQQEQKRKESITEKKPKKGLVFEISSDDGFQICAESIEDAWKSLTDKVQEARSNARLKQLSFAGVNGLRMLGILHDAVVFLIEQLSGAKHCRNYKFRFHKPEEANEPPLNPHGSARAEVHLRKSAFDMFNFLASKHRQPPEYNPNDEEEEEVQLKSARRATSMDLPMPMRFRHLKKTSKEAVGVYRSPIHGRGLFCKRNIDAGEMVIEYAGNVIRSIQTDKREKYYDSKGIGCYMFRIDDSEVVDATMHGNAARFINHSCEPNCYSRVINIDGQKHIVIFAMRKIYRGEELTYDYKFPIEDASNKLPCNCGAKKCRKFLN
Sequence of Histone-lysine N-methyltransferase SMYD3 (Homo sapiens) (Q9H7B4 whole entry): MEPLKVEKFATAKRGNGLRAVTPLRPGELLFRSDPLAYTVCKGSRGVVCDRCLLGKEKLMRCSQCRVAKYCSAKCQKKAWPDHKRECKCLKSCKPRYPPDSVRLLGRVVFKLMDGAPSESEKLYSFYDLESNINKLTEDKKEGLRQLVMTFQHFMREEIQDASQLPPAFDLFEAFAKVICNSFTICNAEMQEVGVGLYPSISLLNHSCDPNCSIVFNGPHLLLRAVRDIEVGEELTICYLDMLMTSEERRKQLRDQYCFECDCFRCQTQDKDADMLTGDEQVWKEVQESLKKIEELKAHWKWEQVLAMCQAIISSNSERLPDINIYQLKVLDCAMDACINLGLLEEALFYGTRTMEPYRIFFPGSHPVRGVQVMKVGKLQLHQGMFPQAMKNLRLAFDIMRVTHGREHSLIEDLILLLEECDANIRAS
Sequence of Protein arginine N-methyltransferase 3 (O60678 whole entry): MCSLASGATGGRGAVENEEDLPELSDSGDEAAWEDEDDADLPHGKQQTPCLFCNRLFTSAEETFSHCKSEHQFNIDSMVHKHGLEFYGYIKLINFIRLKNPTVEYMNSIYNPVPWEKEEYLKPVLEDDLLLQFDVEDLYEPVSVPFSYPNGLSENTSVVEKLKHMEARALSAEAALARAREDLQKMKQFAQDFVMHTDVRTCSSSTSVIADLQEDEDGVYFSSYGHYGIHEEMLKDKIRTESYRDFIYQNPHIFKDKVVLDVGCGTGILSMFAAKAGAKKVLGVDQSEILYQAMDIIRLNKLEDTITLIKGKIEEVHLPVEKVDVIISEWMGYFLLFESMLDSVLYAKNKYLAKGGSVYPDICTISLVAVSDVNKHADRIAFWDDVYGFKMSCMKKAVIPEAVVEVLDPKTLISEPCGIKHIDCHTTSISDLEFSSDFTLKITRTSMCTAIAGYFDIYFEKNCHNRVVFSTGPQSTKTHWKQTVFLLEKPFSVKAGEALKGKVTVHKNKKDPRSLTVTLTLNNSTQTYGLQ

As to `CNC[C@@H](O)CN1CCc2c(cccc2OCc2ccc(-c3nccs3)cc2)C1`, the 50% inhibitory concentration (IC50) in [1] was above 10 µM. Moreover, the inhibition entry in data set [2], in data set [3], in [4], in data set [5] and in [6] was “inactive” each time. The Activity entry in the data set with RS4-11, in the data set with MOLT-4, in the data set on HEL, in the data set with MOLM-13 [8] and in the data set on MOLM-13 [9] was “Dose-dependent effect” throughout. Besides, the “Ratio IC50” value in [7] came out at 10. This compound also displayed a total exposure AUC(0-inf) in data set [10] of 1160 ng·h/mL. The same compound gave a half-life in data set [11] of 24.1 h. Also, the Tmax in data set [12] is 8 h. For the same compound, the inhibition in vivo at 100 mg/kg in the data set on MOLM-13 [13] was determined as 53.5%. Moreover, the inhibition entry in the data set on Mus musculus [14] and in the data set with Mus musculus [15] was “Active” throughout. Also, the concentration at 6 h in [16] is 80700 ng/g.
